Test results from ChEMBL document CHEMBL4706474, “Tetrahydro-2-naphthyl and 2-Indanyl Triazolopyrimidines Targeting Plasmodium falciparum Dihydroorotate Dehydrogenase Display Potent and Selective Antimalarial Activity” (J Med Chem, 2016).
pEC50, pIC50: −log10 of the molar value. ≈ marks a conversion by molar mass, not a printed value.

What was measured:
[1] = tested on: Plasmodium falciparum; assay: Antiplasmodial activity against Plasmodium falciparum 3D7 infected in RBC assessed as reduction in parasitemia incubated for 72 hrs by SYBR green dye-based assay; format: functional, organism-based
[2] = Protein binding in rat plasma assessed as bound fraction by LC-MS analysis based ultracentrifugation assay; format: ADME, cell-free; details: read-out: PPB (converted)
[3] = Protein binding in mouse plasma assessed as bound fraction by LC-MS analysis based ultracentrifugation assay; format: ADME, cell-free; details: read-out: PPB (converted)
[4] = Intrinsic clearance in human pooled liver microsomes assessed per mg protein at 1 uM by LC-MS analysis; format: ADME, Microsome; details: pooled human liver microsomes
[5] = Intrinsic clearance in rat liver microsomes assessed per mg protein at 1 uM by LC-MS analysis; format: ADME, Microsome
[6] = Intrinsic clearance in mouse liver microsomes at 1 uM by LC-MS analysis; format: ADME, Microsome
[7] = Solubility of compound in 0.1 N HCl measured after 5 to 6 hrs by HPLC-UV based analysis; format: physicochemical; details: buffer; time 5-6 hrs
[8] = tested on: Plasmodium falciparum; assay: Antiplasmodial activity against Plasmodium falciparum 3D7 infected in po dosed NSG mouse assessed as reduction in parasitemia administered twice daily for 4 consecutive days starting from day 3 post-infection and measured 24 hrs post last dose by flow cytometric analysis; format: functional; details: 3D7, po, 96 h, time 4 day
[9] = tested on: Plasmodium falciparum; assay: Antiplasmodial activity against Plasmodium falciparum 3D7 infected in po dosed NSG mouse assessed as blood AUC level require to show 90% reduction in parasitemia administered once daily for 4 consecutive days starting from day 3 post-infection and measured 24 hrs post last dose by flow cytometric analysis; format: functional, organism-based; details: time 4.0 day
[10] = Unbound Cmax in Sprague-Dawley rat at 18.8 mg/kg, po by LC-MS analysis; format: ADME, organism-based; details: in vivo
[11] = Unbound AUC (0 to infinity) in Sprague-Dawley rat at 18.8 mg/kg, po by LC-MS analysis; format: ADME, organism-based; details: in vivo
[12] = AUC (0 to infinity) in Sprague-Dawley rat at […], iv by LC-MS analysis; format: ADME, organism-based; set-up: time infinity, route intravenous, dose 2.6 mg/kg; details: in vivo
[13] = Unbound AUC (0 to infinity) in Sprague-Dawley rat at […], iv by LC-MS analysis; format: ADME, organism-based; details: in vivo, dose 2.6 mg/kg
[14] = Unbound Clearance in Sprague-Dawley rat at […], iv by LC-MS analysis; format: ADME, organism-based; details: in vivo, dose 2.6 mg/kg
[15] = Unbound volume of distribution at steady state in Sprague-Dawley rat at […], iv by LC-MS analysis; format: ADME, organism-based; details: in vivo, dose 2.6 mg/kg
[16] = Unbound Cmax in Swiss mouse at 10 mg/kg, po by LC-MS analysis; format: ADME, organism-based; details: in vivo
[17] = Unbound AUC (0 to infinity) in Swiss mouse at 10 mg/kg, po by LC-MS analysis; format: ADME, organism-based; details: in vivo
[18] = Protein binding in Swiss mouse plasma at 10 mg/kg, po administered as single dose via gavage measured over 24 hrs by LC-MS analysis; format: ADME, organism-based; details: read-out: PPB (converted)
[19] = Protein binding in Sprague-Dawley rat plasma at […], iv administered as infusion for 10 mins by LC-MS analysis; format: ADME, organism-based; details: dose 2.6 mg/kg, read-out: PPB (converted)
[20] = Cmax in Sprague-Dawley rat at 24.4 mg/kg, po measured over 24 hrs by LC-MS analysis; format: ADME, organism-based; set-up: route oral, dose 24.4 mg/kg, time >24; details: in vivo
[21] = Inhibition of N-terminal His6-tagged Plasmodium falciparum DHODH expressed in Escherichia coli BL21 using L-DHO as substrate and CoQ as co-substrate by DCIP dye based spectrophotometric assay
[22] = Inhibition of N-terminal His6-tagged Plasmodium vivax DHODH expressed in Escherichia coli BL21 using L-DHO as substrate and CoQ as co-substrate by DCIP dye based spectrophotometric assay
[23] = Inhibition of N-terminal His6-tagged dog DHODH expressed in Escherichia coli BL21 using L-DHO as substrate and CoQ as co-substrate by DCIP dye based spectrophotometric assay; set-up: species or system Canis lupus familiaris
[24] = Lipophilicity, logD of the compound at pH 7.4; format: physicochemical; details: buffer
[25] = Kinetic solubility of compound in phosphate buffer at pH 6.5 measured after 30 mins by HPLC-UV based analysis; format: physicochemical; details: phosphate buffer, pH 6.5, read-out: Kinetic_solubility
[26] = Protein binding in human plasma assessed as bound fraction by LC-MS analysis based ultracentrifugation assay; format: ADME, cell-free; details: read-out: PPB (converted)
[27] = molecular target: Cytochrome P450 3A4 (Homo sapiens, UniProt P08684); assay: Inhibition of CYP3A4 in human liver microsomes using isoform-specific probe substrates in presence of NADPH-generating system by LC-MS analysis; format: ADME
Sequence of Cytochrome P450 3A4 (P08684 whole entry, canonical isoform): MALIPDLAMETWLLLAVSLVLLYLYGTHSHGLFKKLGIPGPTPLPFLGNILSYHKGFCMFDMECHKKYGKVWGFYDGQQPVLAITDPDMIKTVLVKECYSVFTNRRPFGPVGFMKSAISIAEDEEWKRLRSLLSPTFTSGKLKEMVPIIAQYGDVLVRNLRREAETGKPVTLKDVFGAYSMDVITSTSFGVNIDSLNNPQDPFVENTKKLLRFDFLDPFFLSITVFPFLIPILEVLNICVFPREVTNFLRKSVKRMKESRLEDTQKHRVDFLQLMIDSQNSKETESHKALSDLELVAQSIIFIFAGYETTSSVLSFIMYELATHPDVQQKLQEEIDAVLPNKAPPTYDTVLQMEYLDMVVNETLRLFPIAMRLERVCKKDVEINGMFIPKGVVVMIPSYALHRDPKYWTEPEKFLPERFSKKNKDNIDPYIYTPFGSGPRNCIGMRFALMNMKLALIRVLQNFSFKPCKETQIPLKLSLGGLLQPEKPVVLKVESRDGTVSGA

[28] = Tmax in Swiss mouse at 20 mg/kg, po administered as single dose via gavage measured over 24 hrs by LC-MS analysis; format: ADME, organism-based; details: in vivo
[29] = Apparent half-life in Swiss mouse at 20 mg/kg, po administered as single dose via gavage measured over 24 hrs by LC-MS analysis; format: ADME, organism-based; details: in vivo
[30] = Cmax in Swiss mouse at 20 mg/kg, po administered as single dose via gavage measured over 24 hrs by LC-MS analysis; format: ADME, organism-based; set-up: route oral, dose 20 mg/kg, time >24; details: in vivo
[31] = AUC (0 to infinity) in Swiss mouse at 20 mg/kg, po administered as single dose via gavage measured over 24 hrs by LC-MS analysis; format: ADME, organism-based; set-up: route oral, dose 20 mg/kg, time >24; details: in vivo
[32] = Unbound Cmax in Swiss mouse at 20 mg/kg, po administered as single dose via gavage measured over 24 hrs by LC-MS analysis; format: ADME, organism-based; details: in vivo
[33] = Unbound AUC (0 to infinity) in Swiss mouse at 20 mg/kg, po administered as single dose via gavage measured over 24 hrs by LC-MS analysis; format: ADME, organism-based; details: in vivo
[34] = Elimination half-life in Swiss mouse at 20 mg/kg, po administered as single dose via gavage measured over 24 hrs by LC-MS analysis; format: ADME, organism-based; details: in vivo, read-out: beta t1/2 (converted)
[35] = Apparent half-life in Sprague-Dawley rat at 2 mg/kg, iv administered as infusion for 10 mins by LC-MS analysis; format: ADME, organism-based; details: in vivo, read-out: t1/2(app) (converted)
[36] = AUC (0 to infinity) in Sprague-Dawley rat at 2 mg/kg, iv administered as infusion for 10 mins by LC-MS analysis; format: ADME, organism-based; set-up: route intravenous, dose 2 mg/kg, time 10 min; details: in vivo
[37] = Unbound clearance in Sprague-Dawley rat at 2 mg/kg, iv administered as infusion for 10 mins by LC-MS analysis; format: ADME, organism-based; details: in vivo
[38] = Volume of distribution at steady state in Sprague-Dawley rat at 2 mg/kg, iv administered as infusion for 10 mins by LC-MS analysis; format: ADME, organism-based; details: in vivo
[39] = Unbound volume of distribution at steady state in Sprague-Dawley rat at 2 mg/kg, iv administered as infusion for 10 mins by LC-MS analysis; format: ADME, organism-based; details: in vivo
[40] = Unbound Cmax in Sprague-Dawley rat at 24.4 mg/kg, po measured over 24 hrs by LC-MS analysis; format: ADME, organism-based; details: in vivo
[41] = AUC (0 to infinity) in Sprague-Dawley rat at 24.4 mg/kg, po measured over 24 hrs by LC-MS analysis; format: ADME, organism-based; set-up: route oral, dose 24.4 mg/kg, time >24; details: in vivo
[42] = Unbound AUC (0 to infinity) in Sprague-Dawley rat at 24.4 mg/kg, po measured over 24 hrs by LC-MS analysis; format: ADME, organism-based; details: in vivo
[43] = Oral bioavailability in Sprague-Dawley rat at 24.4 mg/kg measured over 24 hrs by LC-MS analysis; format: ADME, organism-based; details: in vivo
[44] = Solubility of compound in FeSSIF at pH 5.8 measured after 5 to 6 hrs by HPLC-UV based analysis; format: physicochemical; details: simulated gi fluid, time 5-6 hrs
[45] = Unbound AUC (0 to infinity) in Sprague-Dawley rat at 2 mg/kg, iv by LC-MS analysis; format: ADME, organism-based; details: in vivo
[46] = Protein binding in Swiss mouse plasma at 20 mg/kg, po administered as single dose via gavage measured over 24 hrs by LC-MS analysis; format: ADME, organism-based; details: read-out: PPB (converted)
[47] = Protein binding in Sprague-Dawley rat plasma at 2 mg/kg, iv administered as infusion for 10 mins by LC-MS analysis; format: ADME, organism-based; details: read-out: PPB (converted)
[48] = in vivo; details: Sprague-Dawley, rat, po, 24.4 mg/kg
[49] = Solubility of compound in FaSSIF at pH 6.5 measured after 5 to 6 hrs by HPLC-UV based analysis

Compound `Cc1cc(Nc2ccc(S(F)(F)(F)(F)F)cc2)n2nc(C(C)(F)F)nc2n1` [DSM-265] has a pEC50 ([1]; Plasmodium falciparum, 3D7, Erythrocyte, 72 h) of 8.37, a fraction unbound [2] of 0.023 and a fraction unbound [3] of 0.003. For the same compound, the microsomal CLint at 1 µM [4] was 4.3 µL/min/mg, the microsomal CLint at 1 µM ([5]; rat liver microsomes, read-out: CLH) was 1.8 µL/min/mg and the intrinsic clearance [6] was 2.8 µL/min. The solubility [7] was 6.8 µg/mL (≈ 16.4 µM), the ED90 [8] was 3 mg/kg and the AUCED90 [9] was 30.8 µM.hr/day. The fCmax [10] was 0.09 µM, the fAUC [11] was 2.8 µM·h and the AUC(0-inf) [12] was 17.4 µM·h. It also gave a fAUC [13] of 0.4 µM·h, a CL free [14] of 263 mL/min/kg and a fVdss [15] of 257 L/kg. For the same compound, the fCmax [16] was 0.01 µM, the fAUC [17] was 0.07 µM·h and the fraction unbound at 24 h [18] was 0.003. The fraction unbound at 10 min [19] was 0.023.

In the case of `Cc1cc(NC2CCc3cc(Br)ccc3C2)n2nc(C(C)(F)F)nc2n1` (stereo in doubt), the Cmax [20] was 37 µM, the pIC50 [21] was 8.34 and the pIC50 [22] was 7.62. It also gave a pEC50 ([1]; rbc) of 8.59, a pIC50 [23] of less than 4.00 and a logD [24] of 4. For the same compound, the solubility kinetic at 0.5 h [25] was 3.1 µg/mL (≈ 7.34 µM), the fraction unbound [26] was 0.01 and the fraction unbound [2] was 0.003. For the same compound, the fraction unbound [3] was 0.008, the “Intrinsic clearance in rat liver microsomes (uL/min/mg protein)” value ([5]; microsomes, 1 µM) was 11 µL/min and the intrinsic clearance [6] was 26 µL/min. It also gave a solubility [7] of 189 µg/mL (≈ 448 µM), an IC50 [27] greater than 20000 nM and a Tmax [28] of 1 h. The “t1/2(app)” value [29] was 2.1 h, the Cmax [30] was 8.6 µM and the AUC [31] was 51 µM·h. The fCmax [32] was 0.07 µM, the fAUC [33] was 0.41 µM·h and the half-life [34] was 2 h. For the same compound, the half-life [35] was 6.2 h, the AUC(0-inf) [36] was 30 µM·h and the CL free [37] was 933 mL/min/kg. For the same compound, the Vdss [38] was 1.1 L/kg, the fVdss [39] was 367 L/kg and the fCmax [40] was 0.11 µM. The AUC(0-inf) [41] was 318 µM·h, the fAUC [42] was 0.95 µM·h and the bioavailability [43] was 86%. For the same compound, the solubility [44] was 211 µg/mL (≈ 500 µM), the fAUC [45] was 0.09 µM·h and the fraction unbound at 24 h [46] was 0.008. The fraction unbound at 10 min [47] was 0.003, the Tmax at 24 h [48] was 2.5 h and the solubility [49] was 13 µg/mL (≈ 30.8 µM).
